We go through twelve compounds from the SangsterLogP compilation.

Take `N=C(N)NN=Cc1ccccc1`: the lipophilicity (logP) was found to be 1.18.

Regarding `C/C(=N/N/C(N)=N/c1ccccc1)c1ccccc1`, the logP amounted to 2.18.

The compound `NC(=Nc1ccccc1)NN=Cc1ccc2ccccc2n1` came in with a lipophilicity (logP) of 0.99.

With `CCCCCC/C(C)=N\N=C(N)N`, the logP is 2.08.

For `CCCCCC(CCC)=NNC(=N)N`, the logP was determined as 2.17.

`CCCCC(C)=NNC(N)=Nc1ccccc1`: the log partition coefficient (logP) was found to be 2.05. This logP and that of the compound before are within 0.2 log units of each other.

In the case of `CCCC(CCC)=NNC(N)=Nc1ccccc1`, the logP came out at 2.33.

In turn, `NC(N)=N/N=C(\c1ccccc1)c1cccs1` gave a logP of 1.96.

Turning to `NC(N)=N/N=C/c1cccs1`, the logP is 0.98.

`CC(=NN=C(N)N)c1cccs1` returned a log partition coefficient (logP) of 1.05.

`CCC/C(=N\NC(N)=Nc1ccccc1)c1ccccc1` came in with a log partition coefficient (logP) of 2.08.

For the compound `CCCC(CCC)=NNC(=N)N`, the logP came out at 1.73.
